Source: ChEMBL document CHEMBL1201862, “PubChem BioAssay data set” (2004)
The source made the active and inactive calls.

Assays:
Cytochrome P450 2C9 = Cytochrome P450 2C9 (Homo sapiens, UniProt P11712)
Cytochrome P450 2D6 = Cytochrome P450 2D6 (Homo sapiens, UniProt P10635);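 note: CYP2D6 member of a cytochrome P450 panel assay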
[1] = target: T1, Serine/threonine-protein phosphatase (Candida dubliniensis (strain CD36 / CBS 7987 / NCPF 3949 / NRRLY-17841) (Yeast), UniProt B9W6M3); test: calcineurin pathway inhibitors in yeast reporter, dose response, S. cerevisiae, CDRE-lacZ, luminescence, secondary (AID 2388); assay type: functional, cell-based;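 note: yeast reporter cells carrying a calcineurin-responsive lacZ construct stimulated with calcium chloride; luminescent beta-galactosidase reporter signal in whole cells rather than isolated phosphatase activity; potency for inhibition where a drop in reporter signal means calcineurin blockade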
T1 sequence (B9W6M3 whole entry): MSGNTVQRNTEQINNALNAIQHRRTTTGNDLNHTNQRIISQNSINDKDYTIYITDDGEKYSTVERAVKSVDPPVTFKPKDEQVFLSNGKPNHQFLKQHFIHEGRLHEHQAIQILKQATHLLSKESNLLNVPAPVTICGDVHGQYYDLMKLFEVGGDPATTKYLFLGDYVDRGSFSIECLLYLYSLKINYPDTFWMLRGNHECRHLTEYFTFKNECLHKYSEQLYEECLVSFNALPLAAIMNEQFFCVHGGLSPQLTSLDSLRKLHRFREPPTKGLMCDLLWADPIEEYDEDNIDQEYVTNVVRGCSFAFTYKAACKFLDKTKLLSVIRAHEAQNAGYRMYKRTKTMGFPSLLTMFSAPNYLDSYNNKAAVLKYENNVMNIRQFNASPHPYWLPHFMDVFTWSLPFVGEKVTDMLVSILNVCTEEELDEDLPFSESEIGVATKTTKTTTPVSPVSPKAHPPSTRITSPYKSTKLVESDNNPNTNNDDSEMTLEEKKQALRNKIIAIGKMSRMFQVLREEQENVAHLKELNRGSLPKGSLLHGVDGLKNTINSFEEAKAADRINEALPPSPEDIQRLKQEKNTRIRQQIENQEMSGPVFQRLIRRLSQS

[2] = NIH-3T3 fibroblast cytotoxicity, dose response, cytotoxicity control, cell-based, fluorescence, Alamar Blue, secondary assay (AID 2327); assay type: functional;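 note: NIH-3T3 mouse fibroblasts cultured with fluconazole at 8 µg/mL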
[3] = C. albicans growth with fluconazole, confirmation, fluorescence, retest (AID 2467); assay type: functional, cell-based
[4] = target: ATP-dependent molecular chaperone HSP82 (Candida albicans (strain WO-1) (Yeast), UniProt C4YTQ8); test: loss of DOC-induced GRE-beta-galactosidase reporter signal, dose response, Hsp90 inhibitor project, S. cerevisiae, luminescence (AID 2400); assay type: functional, cell-based;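 note: beta-galactosidase luminescence from glucocorticoid response element reporter as proxy for Hsp90 function; inhibitor potency where signal loss means Hsp90 inhibition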
Chain of ATP-dependent molecular chaperone HSP82 (C4YTQ8 whole entry): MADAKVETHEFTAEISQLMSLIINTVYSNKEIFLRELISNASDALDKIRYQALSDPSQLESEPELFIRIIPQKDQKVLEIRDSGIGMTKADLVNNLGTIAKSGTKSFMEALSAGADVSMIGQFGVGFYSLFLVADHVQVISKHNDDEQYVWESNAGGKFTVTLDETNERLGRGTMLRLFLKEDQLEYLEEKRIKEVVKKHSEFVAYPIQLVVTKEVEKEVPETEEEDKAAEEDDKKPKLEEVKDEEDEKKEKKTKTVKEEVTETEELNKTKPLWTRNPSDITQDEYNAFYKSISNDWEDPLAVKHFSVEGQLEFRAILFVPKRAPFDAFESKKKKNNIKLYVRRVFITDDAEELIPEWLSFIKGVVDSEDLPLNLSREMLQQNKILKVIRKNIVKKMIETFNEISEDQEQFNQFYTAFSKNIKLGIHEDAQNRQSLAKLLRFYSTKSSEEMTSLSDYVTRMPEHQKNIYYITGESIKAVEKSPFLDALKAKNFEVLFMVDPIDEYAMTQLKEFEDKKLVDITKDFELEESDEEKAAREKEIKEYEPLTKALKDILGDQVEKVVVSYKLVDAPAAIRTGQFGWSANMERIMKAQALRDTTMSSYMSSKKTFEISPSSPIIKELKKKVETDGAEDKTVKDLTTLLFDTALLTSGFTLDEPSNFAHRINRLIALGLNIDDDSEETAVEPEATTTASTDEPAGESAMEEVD

Vero [5] = test: cells; assay type: functional, cell-based; details: Chlorocebus sabaeus
cells [6] = assay type: functional, cell-based
[7] = inhibitors of firefly luciferase expression or activity, dose response, H4 neuroglioma cells, luminescence (AID 1990); assay type: functional, cell-based
Vero [8] = test: cells; assay type: functional; details: Chlorocebus sabaeus
cells [9] = assay type: functional, cell-based; remark: listed apart in the source
[10] = Luminescence Cell-Based Dose Response HTS to Identify Inhibitors of 5'UTR Stem-Loop Driven Prion Protein mRNA Translation in H4 Neuroglioblastoma Cells. [Related pubchem assays: 1827 (Project Summary), 1813 (Primary HTS)]; assay type: functional
[11] = inhibitors of SNCA 5'UTR-driven reporter translation, confirmation, H4 neuroglioma cells, luminescence (AID 1988); assay type: functional, cell-based
Nonstructural protein 1 = Nonstructural protein 1 (Influenza A virus, UniProt Q194T2); assay type: functional, Influenza A virus (A/California/07/2009(H1N1))
Chain of Nonstructural protein 1 (Q194T2 whole entry): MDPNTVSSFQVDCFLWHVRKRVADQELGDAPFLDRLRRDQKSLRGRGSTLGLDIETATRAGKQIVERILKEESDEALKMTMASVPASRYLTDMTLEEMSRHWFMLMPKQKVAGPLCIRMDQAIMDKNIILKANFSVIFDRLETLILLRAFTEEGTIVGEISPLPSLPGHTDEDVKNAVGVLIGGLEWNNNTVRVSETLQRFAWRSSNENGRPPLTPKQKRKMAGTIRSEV

[12] = cytotoxicity toward NIH3T3 fibroblasts, dose response, counter-screen, cell-based, ATP luminescence, mouse fibroblasts (AID 2010); assay type: functional;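 note: cells exposed to compound for about 90 hours before reading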
[13] = target: T2, Voltage-gated N-type calcium channel alpha-1B subunit/Amyloid beta A4 precursor protein-binding family A member 1 (Homo sapiens, UniProt Q00975+Q02410); assay type: protein assay
Genome polyprotein = Genome polyprotein (dengue virus type 2, UniProt P29990); test: Dengue-2 NS5 methyltransferase inhibitors, primary screen, biochemical, confirmation dose response (AID 588689); assay type: functional
Chain of Genome polyprotein (P29990 2492-3391 limits assumed): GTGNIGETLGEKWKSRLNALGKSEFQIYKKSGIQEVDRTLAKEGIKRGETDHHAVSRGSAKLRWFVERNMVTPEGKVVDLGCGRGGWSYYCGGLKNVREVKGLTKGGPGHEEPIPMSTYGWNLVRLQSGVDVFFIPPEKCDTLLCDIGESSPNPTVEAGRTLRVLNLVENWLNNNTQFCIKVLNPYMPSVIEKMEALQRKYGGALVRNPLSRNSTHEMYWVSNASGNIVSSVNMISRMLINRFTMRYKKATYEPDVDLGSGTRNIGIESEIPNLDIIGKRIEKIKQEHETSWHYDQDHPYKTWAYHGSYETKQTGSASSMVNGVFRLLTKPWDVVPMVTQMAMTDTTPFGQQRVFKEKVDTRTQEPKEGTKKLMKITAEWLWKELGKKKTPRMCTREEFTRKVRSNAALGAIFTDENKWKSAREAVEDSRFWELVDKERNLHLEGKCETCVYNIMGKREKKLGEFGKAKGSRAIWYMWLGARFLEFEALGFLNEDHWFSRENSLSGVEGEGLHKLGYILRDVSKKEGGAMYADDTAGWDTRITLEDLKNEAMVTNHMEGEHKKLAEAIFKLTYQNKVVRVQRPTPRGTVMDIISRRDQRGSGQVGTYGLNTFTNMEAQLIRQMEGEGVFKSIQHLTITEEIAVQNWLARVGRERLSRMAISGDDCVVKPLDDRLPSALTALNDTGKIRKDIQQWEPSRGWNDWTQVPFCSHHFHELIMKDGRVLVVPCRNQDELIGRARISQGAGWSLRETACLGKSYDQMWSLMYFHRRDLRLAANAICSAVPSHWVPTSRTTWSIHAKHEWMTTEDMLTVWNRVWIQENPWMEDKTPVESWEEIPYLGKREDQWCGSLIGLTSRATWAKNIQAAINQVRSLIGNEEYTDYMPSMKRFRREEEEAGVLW

[14] = inhibitors of intracellular T. cruzi replication, confirmation, NIH3T3 host cells, beta-gal luminescence (AID 2044); assay type: functional, cell-based;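 note: intracellular parasites grown in NIH/3T3 mouse fibroblasts as host cells; luminescent beta-galactosidase reporter signal from transgenic T. cruzi replicating inside host cells; inhibitors lower the luminescence signal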
[15] = target: T3, Histone-lysine N-methyltransferase NSD2 (Homo sapiens, UniProt O96028); assay type: biochemical
T3 sequence (O96028 whole entry): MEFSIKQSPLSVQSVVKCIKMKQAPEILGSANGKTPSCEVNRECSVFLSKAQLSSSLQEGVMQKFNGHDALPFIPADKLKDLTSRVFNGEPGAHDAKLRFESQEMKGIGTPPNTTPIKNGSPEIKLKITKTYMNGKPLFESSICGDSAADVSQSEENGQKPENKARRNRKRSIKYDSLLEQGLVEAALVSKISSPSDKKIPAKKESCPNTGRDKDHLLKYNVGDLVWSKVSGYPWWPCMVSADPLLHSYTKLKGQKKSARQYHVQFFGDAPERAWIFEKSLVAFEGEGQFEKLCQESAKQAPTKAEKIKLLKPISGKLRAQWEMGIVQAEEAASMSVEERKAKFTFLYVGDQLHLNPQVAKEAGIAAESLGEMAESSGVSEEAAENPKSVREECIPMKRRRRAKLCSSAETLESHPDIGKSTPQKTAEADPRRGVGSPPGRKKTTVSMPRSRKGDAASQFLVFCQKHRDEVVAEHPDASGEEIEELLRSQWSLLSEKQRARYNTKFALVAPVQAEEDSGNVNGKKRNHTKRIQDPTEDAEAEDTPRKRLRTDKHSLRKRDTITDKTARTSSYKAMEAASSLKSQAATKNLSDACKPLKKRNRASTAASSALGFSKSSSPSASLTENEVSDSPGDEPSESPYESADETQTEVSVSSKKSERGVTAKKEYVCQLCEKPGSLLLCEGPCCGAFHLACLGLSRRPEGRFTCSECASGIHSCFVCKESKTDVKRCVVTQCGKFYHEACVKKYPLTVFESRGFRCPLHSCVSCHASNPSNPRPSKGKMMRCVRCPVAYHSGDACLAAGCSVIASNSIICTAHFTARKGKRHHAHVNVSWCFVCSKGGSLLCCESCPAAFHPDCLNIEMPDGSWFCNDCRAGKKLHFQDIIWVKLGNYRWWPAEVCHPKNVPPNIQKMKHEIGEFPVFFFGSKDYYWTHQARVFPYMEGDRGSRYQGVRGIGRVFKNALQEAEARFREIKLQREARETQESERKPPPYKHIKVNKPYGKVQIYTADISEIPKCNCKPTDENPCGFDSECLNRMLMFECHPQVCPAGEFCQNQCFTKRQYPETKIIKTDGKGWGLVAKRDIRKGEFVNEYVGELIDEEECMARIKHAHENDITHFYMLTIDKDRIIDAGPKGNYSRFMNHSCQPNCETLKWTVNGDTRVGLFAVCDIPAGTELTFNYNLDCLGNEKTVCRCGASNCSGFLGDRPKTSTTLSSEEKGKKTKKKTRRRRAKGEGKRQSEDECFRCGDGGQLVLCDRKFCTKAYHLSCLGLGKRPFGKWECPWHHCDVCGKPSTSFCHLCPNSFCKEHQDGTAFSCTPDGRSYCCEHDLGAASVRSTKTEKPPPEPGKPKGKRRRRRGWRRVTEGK

[16] = target: T2, Voltage-gated N-type calcium channel alpha-1B subunit/Amyloid beta A4 precursor protein-binding family A member 1; assay type: protein assay; remark: listed apart in the source
[17] = target: T4, Microphthalmia-associated transcription factor (Homo sapiens, UniProt O75030); test: TRPM1 promoter luciferase signal decrease, dose response, MITF inhibitor project, cell-based, SK-MEL-5, cherry-picked, set 3 (AID 493073); assay type: functional
T4 sequence (O75030 whole entry): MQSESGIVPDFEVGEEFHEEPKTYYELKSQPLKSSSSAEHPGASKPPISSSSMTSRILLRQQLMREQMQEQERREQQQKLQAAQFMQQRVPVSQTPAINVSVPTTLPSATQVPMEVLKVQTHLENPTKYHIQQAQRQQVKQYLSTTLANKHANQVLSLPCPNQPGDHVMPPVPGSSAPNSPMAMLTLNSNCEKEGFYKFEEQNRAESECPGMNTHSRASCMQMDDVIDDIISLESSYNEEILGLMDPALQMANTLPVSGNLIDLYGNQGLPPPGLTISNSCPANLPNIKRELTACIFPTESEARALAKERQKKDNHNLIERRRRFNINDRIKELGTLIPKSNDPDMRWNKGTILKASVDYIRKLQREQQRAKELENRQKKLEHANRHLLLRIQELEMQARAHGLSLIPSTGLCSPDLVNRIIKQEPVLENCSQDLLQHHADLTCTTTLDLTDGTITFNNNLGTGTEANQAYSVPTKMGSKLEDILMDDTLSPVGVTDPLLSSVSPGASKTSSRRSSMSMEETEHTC

[18] = target: T5, Polyadenylate-binding protein 1 (Homo sapiens, UniProt P11940); test: PABP1 MLLE–PAM2 binding inhibitor potency, dose response, biochemical, fluorescence polarization, FITC-PAM2 peptide (AID 602259); assay type: functional; details: read-out: IC50_Mean
T5 sequence (P11940 whole entry): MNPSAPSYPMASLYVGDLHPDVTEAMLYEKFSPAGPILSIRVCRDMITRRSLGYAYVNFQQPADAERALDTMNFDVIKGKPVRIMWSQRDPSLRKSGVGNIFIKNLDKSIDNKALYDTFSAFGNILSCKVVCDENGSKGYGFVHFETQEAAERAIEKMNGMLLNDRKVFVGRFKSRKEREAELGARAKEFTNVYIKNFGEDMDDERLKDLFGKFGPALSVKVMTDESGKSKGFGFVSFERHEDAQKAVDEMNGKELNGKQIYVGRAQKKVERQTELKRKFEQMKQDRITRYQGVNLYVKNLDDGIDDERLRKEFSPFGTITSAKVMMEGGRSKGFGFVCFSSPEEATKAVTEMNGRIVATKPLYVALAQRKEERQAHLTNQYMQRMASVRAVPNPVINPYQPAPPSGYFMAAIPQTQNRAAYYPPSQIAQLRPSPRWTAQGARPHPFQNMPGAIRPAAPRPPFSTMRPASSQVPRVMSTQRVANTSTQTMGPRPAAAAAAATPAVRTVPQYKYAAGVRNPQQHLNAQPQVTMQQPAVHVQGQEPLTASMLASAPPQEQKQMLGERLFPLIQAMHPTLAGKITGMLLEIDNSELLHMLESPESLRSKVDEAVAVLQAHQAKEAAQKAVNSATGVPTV

[19] = target: T6, Rac GTPase-activating protein 1 (Homo sapiens, UniProt Q9H0H5); test: MgcRacGAP GTPase-activating activity inhibitors, confirmation, biochemical, ADP Hunter fluorescence, primary and confirmatory (AID 624330); assay type: functional
T6 sequence (Q9H0H5 whole entry): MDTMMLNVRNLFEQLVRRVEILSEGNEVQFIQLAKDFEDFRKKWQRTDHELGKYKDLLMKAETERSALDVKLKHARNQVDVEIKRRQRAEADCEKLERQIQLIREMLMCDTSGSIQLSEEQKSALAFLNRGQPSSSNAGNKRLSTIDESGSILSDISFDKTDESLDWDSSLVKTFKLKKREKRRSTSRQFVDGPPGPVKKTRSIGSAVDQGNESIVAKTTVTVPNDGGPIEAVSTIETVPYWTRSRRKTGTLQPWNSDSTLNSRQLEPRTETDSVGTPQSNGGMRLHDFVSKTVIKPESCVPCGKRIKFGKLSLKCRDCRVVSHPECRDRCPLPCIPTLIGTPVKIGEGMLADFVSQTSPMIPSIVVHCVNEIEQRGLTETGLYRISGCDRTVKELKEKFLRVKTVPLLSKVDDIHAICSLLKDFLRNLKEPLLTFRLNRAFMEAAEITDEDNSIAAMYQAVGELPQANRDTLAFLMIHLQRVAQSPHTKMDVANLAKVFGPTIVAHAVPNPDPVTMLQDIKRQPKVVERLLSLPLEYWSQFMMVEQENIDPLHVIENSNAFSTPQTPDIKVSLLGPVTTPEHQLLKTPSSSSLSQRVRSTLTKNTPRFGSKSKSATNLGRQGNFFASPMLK

[20] = target: T5, Polyadenylate-binding protein 1; test: PABP1 MLLE–PAM2 interaction inhibitors, dose response, miRNA deadenylation inhibitor project, biochemical, fluorescence polarization, Cy5-PAM2 peptide, secondary (AID 602260); assay type: functional; details: read-out: IC50_Mean
[21] = target: Heat shock protein HSP 90-alpha (Homo sapiens, UniProt P07900); assay type: functional, organism-based
Vero [22] = test: Vero cell cytotoxicity, cytotoxicity control for flavivirus capping enzyme inhibitors (AID 588742); assay type: functional; details: Chlorocebus sabaeus

Chain of Cytochrome P450 2D6 (P10635 whole entry): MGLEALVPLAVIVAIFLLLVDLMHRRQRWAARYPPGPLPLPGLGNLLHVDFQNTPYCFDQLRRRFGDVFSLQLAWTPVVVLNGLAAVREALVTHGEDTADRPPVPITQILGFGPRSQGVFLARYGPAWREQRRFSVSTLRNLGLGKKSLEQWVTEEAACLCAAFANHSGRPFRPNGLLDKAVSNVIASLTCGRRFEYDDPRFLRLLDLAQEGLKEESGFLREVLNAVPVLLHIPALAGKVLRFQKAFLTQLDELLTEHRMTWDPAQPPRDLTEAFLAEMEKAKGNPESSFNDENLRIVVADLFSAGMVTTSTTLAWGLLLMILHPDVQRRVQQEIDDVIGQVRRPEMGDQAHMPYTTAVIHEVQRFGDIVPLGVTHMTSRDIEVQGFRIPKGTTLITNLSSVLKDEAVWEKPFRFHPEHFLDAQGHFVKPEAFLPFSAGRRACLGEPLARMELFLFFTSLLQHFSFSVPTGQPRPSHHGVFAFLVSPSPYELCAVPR
Chain of Cytochrome P450 2C9 (P11712 whole entry): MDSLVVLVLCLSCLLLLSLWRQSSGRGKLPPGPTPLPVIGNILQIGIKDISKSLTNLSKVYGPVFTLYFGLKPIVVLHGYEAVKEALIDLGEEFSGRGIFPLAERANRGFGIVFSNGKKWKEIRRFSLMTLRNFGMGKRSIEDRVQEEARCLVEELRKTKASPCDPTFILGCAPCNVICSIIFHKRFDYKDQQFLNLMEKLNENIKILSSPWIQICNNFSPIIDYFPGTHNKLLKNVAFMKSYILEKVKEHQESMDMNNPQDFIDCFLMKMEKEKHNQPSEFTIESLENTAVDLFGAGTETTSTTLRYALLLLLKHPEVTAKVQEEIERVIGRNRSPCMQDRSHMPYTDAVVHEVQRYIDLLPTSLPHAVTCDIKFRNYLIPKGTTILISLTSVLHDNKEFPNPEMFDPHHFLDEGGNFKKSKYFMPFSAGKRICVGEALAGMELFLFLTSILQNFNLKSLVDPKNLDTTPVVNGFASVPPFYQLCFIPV

Compound: CCN1CCCC1CNC(=O)C(=O)Nc1ccccc1OC (stereo not given)
- AC50 (Cytochrome P450 2C9): inconclusive
- AC50 (Cytochrome P450 2D6): inconclusive

Compound: O=C(c1cc2c(s1)CCCCC2)N1CCN(c2ncccn2)CC1
- EC50 [1]: > 180 µM (inactive)
- EC50 [2]: > 160 µM (inconclusive)
- EC50 [3]: 1.2 µM (active)
- EC50 [4]: 23.9 µM (active)

Compound: O=[N+]([O-])c1cccc(/C=N/Nc2nc(NCc3ccccc3)nc(N3CCOCC3)n2)c1O
- IC50 (Vero [5]): 12.2 µM (active)
- EC50 (cells [6]): 13.4 µM (active)
- EC50 [7]: 11.4 µM (active)
- CC50 (Vero [8]): 14.7 µM (active)
- EC50 (cells [9]): > 350 µM (not active)
- EC50 [10]: 14.1 µM (active)
- EC50 [11]: 15 µM (active)
- IC50 (Nonstructural protein 1): 6.2 µM (active)

Compound: CCOc1cc(CNCCCN2CCOCC2)ccc1OCC(=O)Nc1cccc2ccccc12
- IC50 (Vero [5]): 18.6 µM (active)
- CC50 (Vero [8]): > 25 µM (active)

Compound: COc1ccc(N2C(=O)NC(=O)/C(=C\c3ccc([N+](=O)[O-])s3)C2=O)cc1
- EC50 [12]: > 60 µM (inconclusive)
- IC50 [13]: 18.2 µM (active)
- IC50 (Genome polyprotein): 39.1 µM (active)
- EC50 [14]: 3.77 µM (active)
- AC50 [15]: > 20 µM (inactive)
- IC50 [16]: 10.3 µM (active)

Compound: CC(C)C(CCNC1CCN(C)CC1)c1ccc(Cl)cc1 (stereo not given)
- IC50 (Vero [5]): > 25 µM (active)
- CC50 (Vero [8]): 20.4 µM (active)
- AC50 [17]: 11.9 µM (active)

Compound: O=C(NCc1ccco1)c1sc(=S)n2c1[nH]c(=O)c1ccccc12
- EC50 [1]: > 180 µM (inactive)
- IC50 [18]: > 66 µM (inactive)
- EC50 [2]: > 160 µM (inactive)
- IC50 [19]: 75.6 µM (active)
- IC50 [20]: > 66 µM (inactive)
- EC50 [3]: 0.837 µM (active)
- EC50 [4]: > 160 µM (inactive)

Compound: Clc1ccc(-n2nnnc2CN2CCOCC2)cc1
- AC50 (Cytochrome P450 2C9): inconclusive
- AC50 (Cytochrome P450 2D6): inconclusive

Compound: NC(=O)c1c(NC(=O)c2ccco2)sc2c1CCC2
- EC50 [1]: > 180 µM (inactive)
- EC50 [2]: > 150 µM (inactive)
- EC50 [3]: 0.654 µM (inconclusive)
- EC50 [4]: > 150 µM (inactive)

Compound: Cc1cccn2cc(COc3ccc(-c4ccccc4)cc3)nc12
- IC50 (Vero [5]): 11.6 µM (active)
- CC50 (Vero [8]): > 25 µM (active)

Compound: O=C(O)[C@H]1C[C@H](C(=O)O)N1
- AC50 (Cytochrome P450 2D6): inconclusive

Compound: Oc1c(Cl)cccc1Cc1cc(Cl)cc(Cl)c1O
- AC50 [21]: 3.05 µM (active)
- CC50 (Vero [22]): 19.3 µM (active)
- IC50 (Genome polyprotein): 45.5 µM (active)

Compound: CCOC(=O)c1cnc(-c2ccccc2)nc1Oc1ccc(Cl)cc1
- AC50 (Cytochrome P450 2D6): inconclusive
